Legend:
[1] = test system: Type I Collagenase (MMP-1); assay: Inhibition of type I collagenase (MMP-1) biosynthesis after UV-A irradiation, test substances (ELISA); type: cell-based; settings: new born human fibroblasts, UV-A 15 J/cm^2, 10 μM or 10 ppm, UV negative control = 100; for Type I collagenase biosynthesis (%), UV-A + TNF-α treated group: plus TNF-α 10 ng/ml
Procedure: To describe the experiment method in detail, human fibroblasts isolated from the skin of a new born baby were cultured in a 48-well plate type incubator at a concentration of 10^4. After 24 hours, the plate was irradiated by UV-A at 15 J/cm^2. […] At the second day of cultivation, the supernatants were harvested and subjected to ELISA (AP biotech RPN2610) to determine the amount of produced type I collagenase. As the positive control, Wy-14,643 and retinoic acid (RA) were used.

[2] = test system: Tumor Necrosis Factor alpha (TNF-α); assay: Inhibition of TNF-α biosynthesis after UV irradiation (ELISA); type: cell-based; settings: human keratinocytes, UV-B 30 mJ/cm^2, 10 μM (10 ppm of extract), 6 to 24 hours; UV control = 100
Procedure: Human keratinocytes were cultured in a 12-well plate type incubator at a concentration of 10^4. The plate was irradiated by UV-B at 30 mJ/cm^2. The media were exchanged with new medium containing 10 μM of each test substance (10 ppm of extract). After 6 to 24 hours of cultivation, the cells were harvested and subjected to ELISA (Pharmingen 555212) to determine the amount of produced tumor necrosis factor α (TNF-α). As the positive control, Wy-14,643 was used.

[3] = biological target: T1, PPAR-α (Peroxisome Proliferator Activated Receptor-alpha) (Homo sapiens, UniProt Q07869); assay: Activation of PPAR-α, luciferase reporter in CV-1 cells; type: cell-based; settings: 24 hours, negative control and non-treated group = 1.0
T1 construct: expressed in transfected cells; host or cells: CV-1 monkey kidney epithelial cells (ATCC CCL 70)
T1 sequence (Q07869 1-468): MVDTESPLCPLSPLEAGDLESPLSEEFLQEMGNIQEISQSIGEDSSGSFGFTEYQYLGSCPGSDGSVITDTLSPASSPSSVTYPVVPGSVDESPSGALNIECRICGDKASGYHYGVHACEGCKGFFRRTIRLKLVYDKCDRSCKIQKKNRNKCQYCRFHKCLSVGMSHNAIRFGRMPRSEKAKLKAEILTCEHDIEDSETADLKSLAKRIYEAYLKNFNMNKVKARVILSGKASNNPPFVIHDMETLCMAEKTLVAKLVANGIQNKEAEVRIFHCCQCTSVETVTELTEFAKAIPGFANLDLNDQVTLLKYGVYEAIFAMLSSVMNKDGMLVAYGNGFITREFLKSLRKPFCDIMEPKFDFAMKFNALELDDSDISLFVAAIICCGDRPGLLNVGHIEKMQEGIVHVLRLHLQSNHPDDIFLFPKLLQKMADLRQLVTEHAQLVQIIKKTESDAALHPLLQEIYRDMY
Procedure: Monkey kidney epithelial cell line CV-1 (ATCC CCL 70) was subcultured in a DMEM medium containing 10% fetal bovine serum treated with charcol/dextran, which was a phenol red-free medium to remove the effect by estrogen of phenol red.
CV-1 cells were distributed in a 24-well plate type incubator at a concentration of 5×10^4. After 24 hours cultivation, the 3 different plasmids were transient transfected. After 24 hours cultivation, the plate was washed with 1×PBS (Phosphate Buffered Saline) and treated with ligand candidates at various concentrations. After 24 hours cultivation, the plate was washed with 1×PBS and the cells were lyzed with 1×PLB (Passive Lysis Buffer) and measured for luciferase activity using Dual-Luciferase® Reporter Assay System kit.

pro-collagen = assay: Biosynthesis of collagen (pro-collagen ELISA) in fibroblasts; type: cell-based, Human; settings: 48 hours, un-treated control = 100
Procedure: Human fibroblasts were cultured in a 48-well plate type incubator at a concentration of 10^4. The media were exchanged with new medium (theanine: 1, 10, 100 um) containing each test substance of Table 7 at a concentration of 0.001 μM, 0.01 μM, 0.1 μM, 0.5 μM and 2 μM. After 48 hours of cultivation, each supernatant was harvested and subjected to ELISA (Takara MK101) to measure the amount of produced pro-collagen.
Also, in order to examine the synergic effect of theanine on collagen biosynthesis, theanine 10 μM was added to catechin at different 4 concentrations and the result is shown in Table 8.

MMP-9 = assay: Inhibition of MMP-9 biosynthesis after UV irradiation (gelatin zymography); type: cell-based; settings: human keratinocytes, UV-B 30 mJ/cm^2, 10 ppm test substance, 2 days; UV control = 100
Procedure: (§1) After 24 hours, the plate was irradiated by UV-B at 30 mJ/cm^2. The media were exchanged with new medium containing 10 ppm of each test substance. After 2 days of cultivation, each supernatant was harvested and subjected to the zymography using gelatine gel to obtain produced MMP-2 and MMP-9, quantities of which were then measured by a densitometer.

laminin 10/11 = assay: Biosynthesis of laminin 10/11 in keratinocytes (Western Blot); type: cell-based; settings: human keratinocytes, 10 ppm, 24 hours; control = 100
Procedure: Human keratinocytes were cultured in a 24-well plate type incubator at a concentration of 5×10^4. The media were exchanged with new medium containing 10 ppm of each test substance. After 24 hours of cultivation, each supernatant was harvested and subjected to the Western Blot method to measure the amount of produced laminin 10/11.

type VII collagen = assay: Biosynthesis of type VII collagen in fibroblasts (Dot Blot); type: cell-based; settings: human fibroblasts, 10 ppm, 24 hours; control = 100
Procedure: The media were exchanged with new medium containing 10 ppm of each test substance. After 24 hours of cultivation, each supernatant was harvested and subjected to the Dot Blot method to measure the amount of produced type VII collagen.

MMP-2 = assay: Inhibition of MMP-2 biosynthesis after UV irradiation (gelatin zymography); type: cell-based; settings: human keratinocytes, UV-B 30 mJ/cm^2, 10 ppm test substance, 2 days; UV control = 100
Procedure: as §1

type IV collagen = assay: Biosynthesis of type IV collagen in keratinocytes (Dot Blot); type: cell-based; settings: human keratinocytes, 10 ppm, 24 hours; control = 100
Procedure: The media were exchanged with new medium containing 10 ppm of each test substance. After 24 hours of cultivation, each supernatant was harvested and subjected to the Dot Blot method to measure the amount of produced type IV collagen.

| SMILES | Type I collagenase biosynthesis (%), UV-A + TNF-α treated group [1] | Type I collagenase biosynthesis (%), UV-A irradiated group [1] | TNF-α biosynthesis (%) [2] | PPAR-α activity ([3]; 10 μM) | PPAR-α activity ([3]; 100 μM) | other results |
| --- | --- | --- | --- | --- | --- | --- |
| O=c1c(O)c(-c2ccc(O)c(O)c2)oc2cc(O)cc(O)c12 [Quercetin, quercetin] | 91% | 35% | 27% | 1.7 | 2.3 | – |
| CC1=C(/C=C/C(C)=C/C=C/C(C)=C/C(=O)O)C(C)(C)CCC1 [RA, retinoic acid, reference compound] | 86% | 48% | – | – | – | – |
| Oc1cc(O)c2c(c1)O[C@H](c1ccc(O)c(O)c1)[C@H](O)C2 [(−) EC, (−)epicatechin] | – | – | – | 1.2 | 1.2 | – |
| Cn1c(=O)c2[nH]cnc2n(C)c1=O [Theophylline, reference compound] | 92% | 40% | 36% | 1.4 | 1.7 | – |
| O=C(O)c1cc(O)c(O)c(O)c1 [Gallic acid] | 89% | 52% | 36% | 1.3 | 1.7 | – |
| O=C(O[C@@H]1Cc2c(O)cc(O)cc2O[C@H]1c1ccc(O)c(O)c1)c1cc(O)c(O)c(O)c1 [CG, catechin gallate] | 89% | 53% | 37% | 1.2 | 1.6 | Collagen biosynthesis (pro-collagen; 0.001 μM): 104.3; Collagen biosynthesis (pro-collagen; 0.01 μM): 118.5; Collagen biosynthesis (pro-collagen; 0.1 μM): 124.9; Collagen biosynthesis (pro-collagen; 0.5 μM): 118.9; Collagen biosynthesis (pro-collagen; 2 μM): 80.3; MMP-9 (%) (MMP-9): 55%; laminin 10/11 biosynthesis (%) (laminin 10/11): 129%; type VII collagen biosynthesis (%) (type VII collagen): 124%; MMP-2 (%) (MMP-2): 53%; Type IV collagen biosynthesis (%) (type IV collagen): 134% |
| Oc1cc(O)c2c(c1)OC(c1ccc(O)c(O)c1)C(O)C2 (single isomer, unassigned; (-)) [(−) C, (−)catechin] | – | – | – | 1.4 | 1.2 | – |
| Oc1cc(O)c2c(c1)O[C@H](c1cc(O)c(O)c(O)c1)[C@@H](O)C2 [(−) GC, gallocatechin] | – | – | – | 1.1 | 1.0 | – |
| O=C(O)[C@]1(O)C[C@@H](O)[C@@H](O)[C@H](O)C1 [Quinic acid] | 98% | 75% | 35% | 1.3 | 1.7 | – |
| CCNC(=O)CC[C@H](N)C(=O)O [Theanine] | 95% | 60% | 30% | 1.8 | 1.9 | Collagen biosynthesis (pro-collagen; 10 μM): 132.1; Collagen biosynthesis (pro-collagen; 100 μM): 167.5 |
| Oc1cc(O)c2c(c1)O[C@H](c1ccc(O)c(O)c1)[C@@H](O)C2 [(+) C, (+)catechin] | 86% | 45% | 40% | 1.5 | 1.4 | – |
| Oc1cc(O)c2c(c1)O[C@H](c1cc(O)c(O)c(O)c1)[C@H](O)C2 [(−) EGC, epigallocatechin] | – | – | – | 1.3 | 1.0 | – |
| Oc1cc(O)c2c(c1)O[C@@H](c1ccc(O)c(O)c1)[C@@H](O)C2 [(+) EC, (+)epicatechin] | – | – | – | 1.3 | 1.2 | – |
| O=c1c(O)c(-c2cc(O)c(O)c(O)c2)oc2cc(O)cc(O)c12 [Myricetin, myricetin] | 97% | 52% | 36% | 1.7 | 1.6 | MMP-9 (%) (MMP-9): 55%; laminin 10/11 biosynthesis (%) (laminin 10/11): 132%; type VII collagen biosynthesis (%) (type VII collagen): 125%; MMP-2 (%) (MMP-2): 51%; Type IV collagen biosynthesis (%) (type IV collagen): 139% |
| Cn1cnc2c1c(=O)[nH]c(=O)n2C [Theobromine] | 90% | 32% | 25% | 2.2 | 4.5 | – |
| O=C(O[C@@H]1Cc2c(O)cc(O)cc2O[C@@H]1c1ccc(O)c(O)c1)c1cc(O)c(O)c(O)c1 [(−) ECG, epicatechin gallate] | 87% | 45% | 32% | 1.1 | 1.6 | Collagen biosynthesis (pro-collagen; 0.001 μM): 100.5; Collagen biosynthesis (pro-collagen; 0.01 μM): 181.7; Collagen biosynthesis (pro-collagen; 0.1 μM): 165.3; Collagen biosynthesis (pro-collagen; 0.5 μM): 124.5; Collagen biosynthesis (pro-collagen; 2 μM): 77.8 |
| O=c1c(O)c(-c2ccc(O)cc2)oc2cc(O)cc(O)c12 [Kaempferol, kaempferol] | 94% | 48% | 41% | 1.7 | 1.4 | – |
| Cc1cccc(Nc2cc(Cl)nc(SCC(=O)O)n2)c1C [Wy14643, Wy-14,643, reference compound] | 92% | 60% | 30% | 3.8 | – | PPAR-α activity ([3]; 0.1 μM): 1.5; PPAR-α activity ([3]; 1 μM): 2.6 |
| Cn1c(=O)c2c(ncn2C)n(C)c1=O [Caffeine, reference compound] | 91% | 58% | 39% | 1.3 | 1.6 | – |

— patent US10092493B2, “Composition of skin external application for anti-aging” (AMOREPACIFIC CORPORATION, priority 2005, dated 2018)
